Assay results published in patent US20190343908A1, “Therapeutic Combination for the Treatment of Cancer” (Nerium Biotechnology Inc., priority 2011, published 2019).

Experiments:
[1] = test system: COLO699N lung cancer cell line; assay: Methyl-Tetrazolium viability assay, COLO699N; type: cell-based, human; set-up: key to MTT Average: absorbance (optical density) at 570 nm, second wavelength subtracted; conditions: for Average MTT 24 h / Average MTT 48 h / Average MTT 72 h: COLO699N Run 1; for ABSORBANCE: COLO699N, 0.1 μg/mL cisplatin
Excerpt: (§1) Three different viability assays were chosen to complement each other and yielded results dependent on concentration and cell line: the Methyl Tetrazolium dye assay, the Sulforhodamine B fluorescent dye assay, and the Crystal Violet dye assay.
The Methyl-Tetrazolium dye assay measures the activity of enzymes in mitochondria. The dye precursor is taken up by cells, where it undergoes reduction to the purple formazan. It measures only the mitochondrial activity and, thus, it is not always a reliable indication of whether the cells themselves are alive or dead, since even a recently dead cell has […] enzyme activity in mitochondria. Intracellular glucose concentration, pH, and time before assay all affect the measurements.
(§2) The Methyl Tetrazolium, Sulforhodamine B, and Crystal Violet assays were used to assess cell viabilities. The incubation times were 24 hours, 48 hours, and 72 hours. The Nerium oleander extract Anvirzel™ (a hot water extract of oleander obtained from Salud Integral, Honduras) was tested in concentrations ranging from 0.01 ng/mL to 10 ng/mL.
(§3) Cells were detached by trypsinization (Trypsin-0.25% EDTA, Invitrogen, 25200-072) during the logarithmic phase of culture growth and plated in 96-well plates (18.000 cells/well) (Corning, Costar 359) in a final volume of 200 μl of medium per well. […] The absorbance was measured after 24 hours, 48 hours, and 72 hours of incubation.
For the Methyl-Tetrazolium assay, the dye (Sigma, M2128; 5 mg/mL, diluted in phosphate-buffered saline) was added to each well and plates were incubated for 3 hours at 37° C. After the end of the incubation period, the medium was discarded and the cells were rinsed with phosphate-buffered saline. Finally, the formazan crystals were dissolved in dimethylsulphoxide (Sigma, D4540).
(§4) The optical density of each plate was measured on a μQuant spectrophotometer and the data were analyzed with Gen5 software (μQuant Biomolecular Spectrophotometer MQX200 and Gen5™ Microplate Data Collection & Analysis software, BioTek® Instruments. Inc, April 2008). Absorbance was measured at 570 nm for all assays and a second wavelength was measured in order to subtract noise. For the Methyl-Tetrazolium assay this second wavelength was 630 nm and for the Sulforhodamine B and Crystal Violet assays it was 690 nm.

[2] = test system: COLO699N lung cancer cell line; assay: Crystal Violet viability assay, COLO699N; type: cell-based, human; set-up: key to CVE Average: absorbance at 570 nm (crystal violet), background wavelength subtracted; conditions: for Average CVE 24 h / Average CVE 48 h / Average CVE 72 h: COLO699N Run 1; for ABSORBANCE: COLO699N, 0.1 μg/mL cisplatin
Excerpt: as §1
The Sulforhodamine B and Crystal Violet assays provide information about protein and were used to complement the Methyl-Tetrazolium dye assay. […] It is used for the quantification of cellular proteins of cultured cells. The assay using Crystal Violet, a dye that binds electrostatically to proteins and stains DNA, provides a reliable, simple assay for measuring viability of cells.
as §2, §3
For the Crystal Violet assay, the medium was removed from the 96-well plates, the plates rinsed with PBS (Sigma, P3813) and then the cells were […] by the addition of 10% formalin (MERCK, 1.04003.2500) for 20 minutes at RT. Formalin was removed and 0.25% aqueous crystal violet (Sigma, HT901), dissolved in water, was added for 10 minutes at RT. Unbound Crystal Violet was rinsed by washing with water and finally 33% acetic acid was added to dissolve the dye.
as §4

## N.N.[Cl][Pt][Cl] [cisplatin]
[1]; 0.1 μg/ml CDDP
  Average MTT 24 h: 0.122
[1]; 0.1 μg/ml CDDP, 48 h
  Average MTT 48 h: 0.179
[1]; 0.1 μg/ml CDDP, 72 h
  Average MTT 72 h: 0.237
[1]; 1 μg/ml CDDP
  Average MTT 24 h: 0.023
[1]; 1 μg/ml CDDP, 48 h
  Average MTT 48 h: 0.016
[1]; 1 μg/ml CDDP, 72 h
  Average MTT 72 h: 0.019
[1]; 10 μg/ml CDDP
  Average MTT 24 h: 0.384
[1]; 10 μg/ml CDDP, 48 h
  Average MTT 48 h: 0.012
[1]; 10 μg/ml CDDP, 72 h
  Average MTT 72 h: 0.016
[1]; 100 μg/ml CDDP
  Average MTT 24 h: 0.033
[1]; 100 μg/ml CDDP, 48 h
  Average MTT 48 h: 0.011
[1]; 100 μg/ml CDDP, 72 h
  Average MTT 72 h: 0.014
[1]; 48 h
  ABSORBANCE: 0.636
[1]; 72 h
  ABSORBANCE: 0.73
[1]; Run 2, 24 h, 0.1 μg/ml CDDP
  MTT Average: 0.362
[1]; Run 2, 24 h, 1 μg/ml CDDP
  MTT Average: 0.055
[1]; Run 2, 24 h, 10 μg/ml CDDP
  MTT Average: 0.178
[1]; Run 2, 24 h, 100 μg/ml CDDP
  MTT Average: 0.04
[1]; Run 2, 48 h, 0.1 μg/ml CDDP
  MTT Average: 0.636
[1]; Run 2, 48 h, 1 μg/ml CDDP
  MTT Average: 0.04
[1]; Run 2, 48 h, 10 μg/ml CDDP
  MTT Average: 0.049
[1]; Run 2, 48 h, 100 μg/ml CDDP
  MTT Average: 0.018
[1]; Run 2, 72 h, 0.1 μg/ml CDDP
  MTT Average: 0.73
[1]; Run 2, 72 h, 1 μg/ml CDDP
  MTT Average: 0.044
[1]; Run 2, 72 h, 10 μg/ml CDDP
  MTT Average: 0.057
[1]; Run 2, 72 h, 100 μg/ml CDDP
  MTT Average: 0.068
[1]; Run 3, 24 h, 0.1 μg/ml CDDP
  MTT Average: 0.365
[1]; Run 3, 24 h, 1 μg/ml CDDP
  MTT Average: 0.04
[1]; Run 3, 24 h, 10 μg/ml CDDP
  MTT Average: 0.148
[1]; Run 3, 24 h, 100 μg/ml CDDP
  MTT Average: 0.041
[1]; Run 3, 48 h, 0.1 μg/ml CDDP
  MTT Average: 0.442
[1]; Run 3, 48 h, 1 μg/ml CDDP
  MTT Average: 0.063
[1]; Run 3, 48 h, 10 μg/ml CDDP
  MTT Average: 0.041
[1]; Run 3, 48 h, 100 μg/ml CDDP
  MTT Average: 0.025
[1]; Run 3, 72 h, 0.1 μg/ml CDDP
  MTT Average: 0.638
[1]; Run 3, 72 h, 1 μg/ml CDDP
  MTT Average: 0.078
[1]; Run 3, 72 h, 10 μg/ml CDDP
  MTT Average: 0.026
[1]; Run 3, 72 h, 100 μg/ml CDDP
  MTT Average: 0.027
[2]; 0.1 μg/ml CDDP
  Average CVE 24 h: 0.303
[2]; 0.1 μg/ml CDDP, 48 h
  Average CVE 48 h: 0.393
[2]; 0.1 μg/ml CDDP, 72 h
  Average CVE 72 h: 0.418
[2]; 1 μg/ml CDDP
  Average CVE 24 h: 0.222
[2]; 1 μg/ml CDDP, 48 h
  Average CVE 48 h: 0.136
[2]; 1 μg/ml CDDP, 72 h
  Average CVE 72 h: 0.313
[2]; 10 μg/ml CDDP
  Average CVE 24 h: 0.313
[2]; 10 μg/ml CDDP, 48 h
  Average CVE 48 h: 0.47
[2]; 10 μg/ml CDDP, 72 h
  Average CVE 72 h: 0.256
[2]; 100 μg/ml CDDP
  Average CVE 24 h: 0.223
[2]; 100 μg/ml CDDP, 48 h
  Average CVE 48 h: 0.189
[2]; 100 μg/ml CDDP, 72 h
  Average CVE 72 h: 0.172
[2]; 48 h
  ABSORBANCE: 0.801
[2]; 72 h
  ABSORBANCE: 1
[2]; Run 2, 24 h, 0.1 μg/ml CDDP
  CVE Average: 0.551
[2]; Run 2, 24 h, 1 μg/ml CDDP
  CVE Average: 0.232
[2]; Run 2, 24 h, 10 μg/ml CDDP
  CVE Average: 0.504
[2]; Run 2, 24 h, 100 μg/ml CDDP
  CVE Average: 0.266
[2]; Run 2, 48 h, 0.1 μg/ml CDDP
  CVE Average: 0.801
[2]; Run 2, 48 h, 1 μg/ml CDDP
  CVE Average: 0.311
[2]; Run 2, 48 h, 10 μg/ml CDDP
  CVE Average: 0.205
[2]; Run 2, 48 h, 100 μg/ml CDDP
  CVE Average: 0.287
[2]; Run 2, 72 h, 0.1 μg/ml CDDP
  CVE Average: 1
[2]; Run 2, 72 h, 1 μg/ml CDDP
  CVE Average: 0.337
[2]; Run 2, 72 h, 10 μg/ml CDDP
  CVE Average: 0.127
[2]; Run 2, 72 h, 100 μg/ml CDDP
  CVE Average: 0.268
[2]; Run 3, 24 h, 0.1 μg/ml CDDP
  CVE Average: 0.675
[2]; Run 3, 24 h, 1 μg/ml CDDP
  CVE Average: 0.194
[2]; Run 3, 24 h, 10 μg/ml CDDP
  CVE Average: 0.398
[2]; Run 3, 24 h, 100 μg/ml CDDP
  CVE Average: 0.224
[2]; Run 3, 48 h, 0.1 μg/ml CDDP
  CVE Average: 0.624
[2]; Run 3, 48 h, 1 μg/ml CDDP
  CVE Average: 0.815
[2]; Run 3, 48 h, 10 μg/ml CDDP
  CVE Average: 0.199
[2]; Run 3, 48 h, 100 μg/ml CDDP
  CVE Average: 0.185
[2]; Run 3, 72 h, 0.1 μg/ml CDDP
  CVE Average: 0.759
[2]; Run 3, 72 h, 1 μg/ml CDDP
  CVE Average: 0.295
[2]; Run 3, 72 h, 10 μg/ml CDDP
  CVE Average: 0.155
[2]; Run 3, 72 h, 100 μg/ml CDDP
  CVE Average: 0.393
